Source: patent publication US12570651B2, “Quinazoline-2,4-dione derivatives as PARP inhibitors” (Suzhou Four Health Pharmaceuticals Co., Ltd., priority 2019, dated 2026)

How the values were obtained:
PARP-1 = biological target: T1, PARP-1 (Homo sapiens, UniProt P09874); experiment: PARP/Apoptosis Universal Colorimetric Assay Kit (ELISA), PARP inhibitory activity; type: biochemical; conditions: for IC50: Elise test methods April 2020, 0.5 U/well PARP-HSA Enzyme, read-out: IC50-values for different PARP-inhibitors, as calculated by ELISA; for IC50, comparison in words: ELISA
T1 construct: purchased BioTechne—R&D Systems 4677-096-K
Procedure: The inhibitors (13F, 14F, 13I-FL, 13F-FL, 14F-FL, 13I and 14I) were kept at −20° C., dissolved in DMSO at 20 mg/mL.
The PARP/Apoptosis Universal Colorimetric Assay Kit 4677-096-K was purchased from BioTechne—R&D Systems. This ELISA kit detects biotinylated poly (ADP-ribose) deposited by PARP-1 onto immobilized histones in a 96-well format. The addition of Strep-HRP (biotin-binding protein) and a colorimetric HRP substrate yields relative absorbance that correlates with PARP-1 activity. The kit is used for in vitro screening of candidate PARP-1 inhibitors and determination of IC50 values.
The protocol recommended by the provider was followed. A 1/10 serial dilution of the inhibitors (ranging from 500 μM to 0.5 nM, 7 data points in triplicate) was added to the designated wells. Wells incubated with 0.5 U/well of PARP-HSA Enzyme without inhibitor were used as the 100% activity reference point. Data was expressed as % of Maximal Activity and plotted in function of the log of concentration (M)) using Graph Pad Prism 8. IC50 values were determined using a dose-response-inhibition equation.

Cal27 cells [1] = experiment: In vitro cell binding study, confocal microscopy; type: cell-based
Procedure: (§1) 40 000 cells (FaDu, OE33, or Cal27) were plated in 24-well plates (Cell imaging plates with glass bottom, Eppendorf), and incubated for 2 days at 37° C. After removal of the medium, either 0.5 mL of media (Cond 1), 0.5 mL of 10 μM unlabeled PARPi (14F) (Cond 2) or 0.5 mL of 10 μM Olaparib (Cond 3) was added to the cells. After 30 minutes of incubation at 37° C., cells were washed with 1 mL of medium. Subsequently, 0.5 mL of 14F-FL at a final concentration of 0.1 μM was added and incubated for 15 min at 37° C. The cells were then washed thrice with 1 ml cold PBS, fixed with 1 mL 4% paraformaldehyde (VWR) for 7-10 minutes and washed again with 1 mL PBS. Finally, 0.5 mL of 1 μg/mL DAPI-staining solution (DAPI ready-made solution, Sigma) was added for at least 10 min to stain the cell nuclei.
(§2) High resolution bright field and fluorescent images of the cells were acquired on a confocal microscope (LSM800, Zeiss) with excitation and emission wavelengths of 405/455 nm for DAPI and 488/525 for BodipyFL (standard conditions). Images were taken with a Plan Apochromat 63×/1.4 oil objective. Images were analyzed with the Software ZenLITE (Zeiss).

FaDu cells [2] = experiment: In vitro cell binding study, confocal microscopy; type: cell-based
Procedure: as §1, §2

OE33 cells [3] = experiment: In vitro cell binding study, confocal microscopy; type: cell-based
Procedure: as §1, §2

Cal27 cells [4] = experiment: Cell binding by flow cytometry; type: cell-based
Procedure: (§3) 250 000 cells (FaDu, Cal27 or OE33) in suspension were incubated with 0.5 mL media, 0.5 mL 10 μM unlabeled 14F or 0.5 mL 10 μM Olaparib-analogue. After 30 min incubation at 37° C., the cells were washed once with 0.5 mL media and subsequently incubated with 0.5 mL 0.1 μM 14F-FL for 10 min at 37° C. The cells were then washed thrice with media (including 1×10 min incubation) and resuspended in FACS buffer (PBS+0.5% FBS+EDTA+N3). Finally, cells were analyzed on a flow cytometer (BD Celesta) in the GFP channel (ex 488 nm, em filter 510 nm). Data was analyzed via FlowJo software.

FaDu cells [5] = experiment: Cell binding by flow cytometry; type: cell-based
Procedure: as §3

OE33 cells [6] = experiment: Cell binding by flow cytometry; type: cell-based
Procedure: as §3

FaDu cells [7] = experiment: In vitro association kinetics, confocal microscopy; type: cell-based; conditions: 0.1 μM, 37° C.
Procedure: 40 000 FaDu cells were plated in 24-well plates (Cell imaging plates with glass bottom, Eppendorf), and incubated for 2 days at 37° C. After removal of the medium, 0.5 mL of 14F-FL at a final concentration of 0.1 μM was added and incubated for 2 min, 10 min, 20 min, 30 min, 45 min or 60 min at 37° C. The cells were then washed thrice with 1 ml cold PBS, fixed with 1 mL 4% paraformaldehyde (VWR) for 7-10 minutes and washed again with 1 mL PBS. Finally, 0.5 mL of 1 μg/mL DAPI-staining solution (DAPI ready-made solution, Sigma) was added for at least 10 min to stain the cell nuclei.
as §2

FaDu cells [8] = experiment: In vitro dissociation kinetics, confocal microscopy; type: cell-based
Procedure: 40 000 FaDu cells were plated in 24-well plates (Cell imaging plates with glass bottom, Eppendrof), and incubated for 2 days at 37° C. After removal of the medium, 0.5 mL of 14F-FL at a final concentration of 0.1 μM was added and incubated for 15 min at 37° C. The cells were then washed thrice with 1 ml cold PBS, and further incubated for 0 min, 30 min, 1 h, 2 h, 4 h or 24 h in medium at 37° C. After washing once with 1 mL cold PBS, the cells were fixed with 4% paraformaldehyde (VWR) and staining with DAPI as described above.
as §2

[9] = 0.1 μM 14F-FL, 15 min at 37° C.
[10] = 0.1 μM 14F-FL, 10 min at 37° C.
[11] = 0.1 μM 15 min, washed, medium at 37° C.
[12] = 10 μM pretreatment 30 min, then 0.1 μM 14F-FL

T1 sequence (P09874 whole entry): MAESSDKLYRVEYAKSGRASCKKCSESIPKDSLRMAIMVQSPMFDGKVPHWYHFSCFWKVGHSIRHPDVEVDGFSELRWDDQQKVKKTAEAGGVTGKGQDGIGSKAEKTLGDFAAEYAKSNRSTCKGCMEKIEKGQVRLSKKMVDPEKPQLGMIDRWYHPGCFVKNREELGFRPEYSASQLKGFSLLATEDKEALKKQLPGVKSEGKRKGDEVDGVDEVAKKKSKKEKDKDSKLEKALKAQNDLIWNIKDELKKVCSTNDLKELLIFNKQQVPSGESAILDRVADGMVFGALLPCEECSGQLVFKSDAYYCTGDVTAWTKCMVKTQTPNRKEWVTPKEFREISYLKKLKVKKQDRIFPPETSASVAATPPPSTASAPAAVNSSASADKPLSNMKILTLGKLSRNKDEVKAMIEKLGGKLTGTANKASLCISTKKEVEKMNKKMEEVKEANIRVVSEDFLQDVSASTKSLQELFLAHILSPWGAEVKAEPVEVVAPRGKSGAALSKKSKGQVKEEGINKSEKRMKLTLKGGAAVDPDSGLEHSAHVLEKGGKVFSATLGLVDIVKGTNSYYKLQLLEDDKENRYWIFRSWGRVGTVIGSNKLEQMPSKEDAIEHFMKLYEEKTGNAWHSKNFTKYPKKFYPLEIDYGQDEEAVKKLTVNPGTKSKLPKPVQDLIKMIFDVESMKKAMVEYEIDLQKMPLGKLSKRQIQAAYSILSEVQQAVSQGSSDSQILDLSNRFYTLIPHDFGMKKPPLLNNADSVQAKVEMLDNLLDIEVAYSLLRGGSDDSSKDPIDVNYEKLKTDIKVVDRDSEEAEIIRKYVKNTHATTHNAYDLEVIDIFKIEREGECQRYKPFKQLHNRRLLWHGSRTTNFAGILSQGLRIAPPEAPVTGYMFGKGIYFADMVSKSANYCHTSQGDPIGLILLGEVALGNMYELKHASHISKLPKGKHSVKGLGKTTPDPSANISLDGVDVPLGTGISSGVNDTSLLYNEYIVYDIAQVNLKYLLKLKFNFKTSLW

Compound: CC1=CC(C)=[N+]2C1Cc1ccc(CCC(=O)N3CCN(C(=O)c4cc(Cn5c(=O)[nH]c(=O)c6cccnc65)ccc4I)CC3)n1[B-]2(F)F (stereo not shown) [Compound 13I-FL, 1-(3-(4-(3-(5,5-difluoro-7,9-dimethyl-5H-5I4,6I4-dipyrrolo[1,2-c:2′,1′-f][1,3,2]diazaborinin-3-yl)propanoyl)piperazine-1-carbonyl)-4-iodobenzyl)pyrido[2,3-d]pyrimidine-2,4(1H,3H)-dione]
- IC50 (PARP-1): > 500 nM

Compound: O=C(c1cc(Cn2c(=O)[nH]c(=O)c3cccnc32)ccc1I)N1CCN(C(=O)C2CCCC2)CC1 [Compound 13I, 1-(3-(4-(cyclopentanecarbonyl)piperazine-1-carbonyl)-4-iodobenzyl) pyrido [2,3-d]pyrimidine-2,4(1H,3H)-dione]
- IC50 (PARP-1): > 500 nM

Compound: CC1=CC(C)=[N+]2C1Cc1ccc(CCC(=O)N3CCN(C(=O)c4cc(Cn5c(=O)[nH]c(=O)c6cccnc65)ccc4F)CC3)n1[B-]2(F)F (stereo not shown) [Compound 13F-FL, 1-(3-(4-(3-(5,5-difluoro-7,9-dimethyl-5H-5I4,6I4-dipyrrolo[1,2-c:2′,1′-f][1,3,2]diazaborinin-3-yl)propanoyl)piperazine-1-carbonyl)-4-fluorobenzyl)pyrido[2,3-d]pyrimidine-2,4(1H,3H)-dione]
- IC50 (PARP-1): 50 to 500 nM

Compound: O=C(c1cc(Cn2c(=O)[nH]c(=O)c3cccnc32)ccc1F)N1CCN(C(=O)C2CCCC2)CC1 [Compound 13F, 1-(3-(4-(cyclopentanecarbonyl)piperazine-1-carbonyl)-4-fluorobenzyl)pyrido[2,3-d]pyrimidine-2,4(1H,3H)-dione]
- IC50 (PARP-1): 50 to 500 nM

Compound: O=C(c1cc(Cn2c(=O)[nH]c(=O)c3ccccc32)ncc1I)N1CCN(C(=O)C2CCCC2)CC1 [Compound 14I, 1-((4-(4-(cyclopentanecarbonyl)piperazine-1-carbonyl)-5-iodopyridin-2-yl)methyl)quinazoline-2,4(1H,3H)-dione]
- IC50 (PARP-1): > 500 nM

Compound: CC1=CC(C)=[N+]2C1=Cc1ccc(CCC(=O)N3CCN(C(=O)c4cc(Cn5c(=O)[nH]c(=O)c6ccccc65)ncc4F)CC3)n1[B-]2(F)F [Compound 14F-FL, 1-((4-(4-(3-(5,5-difluoro-7,9-dimethyl-5H-5I4,6I4-dipyrrolo[1,2-c:2′,1′-f][1,3,2]diazaborinin-3-yl)propanoyl)piperazine-1-carbonyl)-5-fluoropyridin-2-yl)methyl)quinazoline-2,4(1H,3H)-dione]
- IC50, comparison in words (PARP-1): Best IC50-values
- IC50 (PARP-1): < 50 nM
- fluorescent signal in the nuclei (Cal27 cells [1]; [9]): intense green fluorescent signal
- fluorescent signal in the nuclei (FaDu cells [2]; [9]): intense green fluorescent signal
- fluorescent signal in the nuclei (OE33 cells [3]; [9]): intense green fluorescent signal
- cell binding, flow cytometry (Cal27 cells [4]; [10]): significant binding
- cell binding, flow cytometry (FaDu cells [5]; [10]): significant binding
- cell binding, flow cytometry (OE33 cells [6]; [10]): significant binding
- incubation time to maximal binding (FaDu cells [7]): ≤ 10 min
- retention on target after binding (FaDu cells [8]; [11]): remains bound to its target for a few hours
- time from which the signal in the nucleus gradually decreases (FaDu cells [8]; [11]): 2 to 4 h
- signal in the nuclei after 24 h (FaDu cells [8]; 24 h in medium at 37° C. after washing): some signal can still be observed

Compound: O=C(c1cc(Cn2c(=O)[nH]c(=O)c3ccccc32)ncc1F)N1CCN(C(=O)C2CCCC2)CC1 [Compound 14F, 1-((4-(4-(cyclopentanecarbonyl)piperazine-1-carbonyl)-5-fluoropyridin-2-yl)methyl)quinazoline-2,4(1H,3H)-dione]
- IC50, comparison in words (PARP-1): Best IC50-values
- IC50 (PARP-1): < 50 nM
- 14F-FL signal after pretreatment with excess of unlabeled analogue (Cal27 cells [1]; [12]): no green fluorescent signal
- 14F-FL signal after pretreatment with excess of unlabeled analogue (FaDu cells [2]; [12]): no green fluorescent signal
- 14F-FL signal after pretreatment with excess of unlabeled analogue (OE33 cells [3]; [12]): no green fluorescent signal
- 14F-FL binding after pretreatment with excess unlabeled compound, flow cytometry (Cal27 cells [4]; [12]): decreased the binding
- 14F-FL binding after pretreatment with excess unlabeled compound, flow cytometry (FaDu cells [5]; [12]): decreased the binding
- 14F-FL binding after pretreatment with excess unlabeled compound, flow cytometry (OE33 cells [6]; [12]): decreased the binding
